ChEMBL document CHEMBL1139038, “Design and synthesis of 3-substituted benzamide derivatives as Bcr-Abl kinase inhibitors” (Bioorg Med Chem Lett, 2006)

What was measured:
K562 = test: Antiproliferative activity against K562 cells; type: functional, cell-based; settings: Homo sapiens
U-937 = test: Antiproliferative activity against U937 cells; type: functional, cell-based; settings: Homo sapiens

IC50 (K562) | IC50 (U-937) | Structure (SMILES)
0.01 µM | 6 µM | Cc1ccc(NC(=O)c2ccc(CN3CCN(C)CC3)c(I)c2)cc1Nc1nccc(-c2cccnc2)n1
– | 4 µM | Cc1ccc(NC(=O)c2ccc(CN3CCN(C)CC3)c(C(F)(F)F)c2)cc1Nc1nccc(-c2cccnc2)n1
– | 8 µM | Cc1ccc(NC(=O)c2ccc(CN3CCN(C)CC3)c(F)c2)cc1Nc1nccc(-c2cccnc2)n1
– | 5 µM | Cc1ccc(NC(=O)c2ccc(CN3CCN(C)CC3)c(C(F)(F)F)c2)cc1Nc1nccc(-c2cncnc2)n1
0.004 µM | 9 µM | Cc1ccc(NC(=O)c2ccc(CN3CC[C@@H](N(C)C)C3)c(C(F)(F)F)c2)cc1Nc1nccc(-c2cncnc2)n1
0.017 µM | > 100 µM | Cc1ccc(NC(=O)c2ccc(CN3CC(N(C)C)C3)c(C(F)(F)F)c2)cc1Nc1nccc(-c2cncnc2)n1
0.01 µM | 9 µM | Cc1ccc(NC(=O)c2ccc(CN3CCN(C)CC3)c(Cl)c2)cc1Nc1nccc(-c2cccnc2)n1
– | 5 µM | Cc1ccc(NC(=O)c2ccc(CN3CCN(C)CC3)c(Br)c2)cc1Nc1nccc(-c2cccnc2)n1
0.011 µM | 20 µM | Cc1ccc(NC(=O)c2ccc(CN3CC[C@H](CN(C)C)C3)c(C(F)(F)F)c2)cc1Nc1nccc(-c2cncnc2)n1
0.009 µM | > 100 µM | Cc1ccc(NC(=O)c2ccc(CN3CC[C@@H](CN(C)C)C3)c(C(F)(F)F)c2)cc1Nc1nccc(-c2cncnc2)n1
0.011 µM | 10 µM | Cc1ccc(NC(=O)c2ccc(CN3CC[C@H](N(C)C)C3)c(C(F)(F)F)c2)cc1Nc1nccc(-c2cncnc2)n1 [BAFETINIB]
– | 14 µM | Cc1ccc(NC(=O)c2ccc(CN3CCN(C)CC3)cc2)cc1Nc1nccc(-c2cccnc2)n1 [IMATINIB]
